This is an account of results in PMC5471204, “Autotransporter domain-dependent enzymatic analysis of a novel extremely thermostable carboxylesterase with high biodegradability towards pyrethroid pesticides” (Scientific Reports, 2017).

SMILES strings stand for the structures.

The Km is the concentration of substrate that gives half-maximal velocity.

In the first assay the test system is T1, EstPS1.
T1 construct: full-length ORF with signal peptide (24 residues) and autotransporter domain (357-640); N-terminal His-tag, pET-28a, E. coli BL21(DE3), Ni-NTA; 640 residues, 68 kDa
The experiment in a line: pesticide hydrolysis, gas chromatography, Lineweaver-Burk. In kind it is biochemical, Pseudomonas synxantha. Particulars: 50 mM Tris-HCl pH 8.0, 40 °C (degradation assay); stated substrate range 10 to 500 μM. From the text: pesticide hydrolysis, gas chromatography, Lineweaver-Burk on EstPS1
Regarding `CC1(C)C(C=C(Cl)Cl)C1C(=O)OC(C#N)c1cccc(Oc2ccccc2)c1` (stereo not drawn) [cis-Cypermethrin], the Km worked out at 0.62 ± 0.031 µM.

Regarding `CC1(C)C(C(=O)OC(C#N)c2cccc(Oc3ccccc3)c2)C1(C)C` (stereo not drawn) [Fenpropathrin], the Km came to 0.25 ± 0.014 µM.

With `CNC(=O)Oc1cccc2ccccc12` [Carbaryl], the Km stood at 0.21 ± 0.01 µM.

For `CC1(C)C(C=C(Cl)Cl)C1C(=O)OC(C#N)c1cccc(Oc2ccccc2)c1` (stereo not drawn) [trans-Cypermethrin], the Km turned out to be 0.53 ± 0.028 µM.

As for `Cc1c(COC(=O)[C@@H]2[C@H](/C=C(\Cl)C(F)(F)F)C2(C)C)cccc1-c1ccccc1` (racemic) [Bifenthrin], the Km was found to be 1.25 ± 0.061 µM.

In the case of `CC(C)C(C(=O)OC(C#N)c1cccc(Oc2ccccc2)c1)c1ccc(Cl)cc1` (stereo not drawn) [Fenvalerate], the Km was 0.84 ± 0.042 µM.

The next assay relates to T1, EstPS1. Kind of assay: p-nitrophenol release at […] nm, Lineweaver-Burk. Type of assay: biochemical, Pseudomonas synxantha. Particulars: 50 mM Tris-HCl pH 8.0, 60 °C.
Take `CCCC(=O)Oc1ccc([N+](=O)[O-])cc1` [p-Nitrophenyl butyrate]: the Km was 43 ± 8 µM.

Turning to `CC(=O)Oc1ccc([N+](=O)[O-])cc1` [p-Nitrophenyl acetate], the Km stood at 102 ± 12 µM.

In the case of `CCCCCCCC(=O)Oc1ccc([N+](=O)[O-])cc1` [p-Nitrophenyl caprylate], the Km stood at 61 ± 10 µM.

`CCCCCCCCCCCC(=O)Oc1ccc([N+](=O)[O-])cc1` [p-Nitrophenyl laurate]: the Km came to 391 ± 9 µM.

For the molecule `CCCCCC(=O)Oc1ccc([N+](=O)[O-])cc1` [p-Nitrophenyl caproate], the Km was 76 ± 7 µM.

Regarding `CCCCCCCCCC(=O)Oc1ccc([N+](=O)[O-])cc1` [p-Nitrophenyl decanoate], the Km is 362 ± 13 µM.
